From PubChem BioAssay AID212 (DTP/NCI, 2004)
“And” between values parts separate entries of the source, which are not always exact repeats. Equal entries are not always repeated. Results filed as inconclusive are left out.

System: BDF1 mice, colon carcinoma 38 sc, T/C %
Assay: NCI In Vivo Anticancer Drug Screen. Data for tumor model Colon Carcinoma 38 (subcutaneous) in B6D2F1 (BDF1) mice
Settings: higher = larger tumour
How it was run: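 Transplantable tumor in mice; compound-treated vs vehicle-dosed controls. Measured survival or tumor size; value = T ÷ C.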

[1] = endpoint: median tumor weight (est.), dose: 1.0 mg/kg/injection, schedule: Q07DX002 (ip), vehicle: saline
[2] = endpoint: median tumor weight (est.), dose: 4.0 mg/kg/injection, schedule: Q07DX002 (ip), vehicle: saline
[3] = endpoint: median tumor weight (est.), dose: 8.0 mg/kg/injection, schedule: Q07DX002 (ip), vehicle: saline
[4] = endpoint: median tumor weight (est.), dose: 16.0 mg/kg/injection, schedule: Q07DX002 (ip), vehicle: saline
[5] = endpoint: median tumor weight (est.), dose: 25.0 mg/kg/injection, schedule: Q07DX002 (ip), vehicle: saline with Tween-80
[6] = endpoint: median tumor weight (est.), dose: 50.0 mg/kg/injection, schedule: Q07DX002 (ip), vehicle: saline with Tween-80
[7] = endpoint: median tumor weight (est.), dose: 100.0 mg/kg/injection, schedule: Q07DX002 (ip), vehicle: saline with Tween-80
[8] = endpoint: median tumor weight (est.), dose: 200.0 mg/kg/injection, schedule: Q07DX002 (ip), vehicle: saline with Tween-80
[9] = endpoint: median tumor weight (est.), dose: 12.5 mg/kg/injection, schedule: Q07DX002 (ip), vehicle: Klucel (hydroxypropylcellulose) (HPC)
[10] = endpoint: median tumor weight (est.), dose: 25.0 mg/kg/injection, schedule: Q07DX002 (ip), vehicle: Klucel (hydroxypropylcellulose) (HPC)
[11] = endpoint: median tumor weight (est.), dose: 50.0 mg/kg/injection, schedule: Q07DX002 (ip), vehicle: Klucel (hydroxypropylcellulose) (HPC)
[12] = endpoint: median tumor weight (est.), dose: 100.0 mg/kg/injection, schedule: Q07DX002 (ip), vehicle: Klucel (hydroxypropylcellulose) (HPC)
[13] = endpoint: median tumor weight (est.), dose: 200.0 mg/kg/injection, schedule: Q07DX002 (ip), vehicle: Klucel (hydroxypropylcellulose) (HPC)
[14] = endpoint: median tumor weight (est.), dose: 400.0 mg/kg/injection, schedule: Q07DX002 (ip), vehicle: Klucel (hydroxypropylcellulose) (HPC)
[15] = endpoint: median tumor weight (est.), dose: 12.5 mg/kg/injection, schedule: Q07DX002 (ip), vehicle: saline with Tween-80
[16] = endpoint: median tumor weight (est.), dose: 400.0 mg/kg/injection, schedule: Q07DX002 (ip), vehicle: saline with Tween-80

SMILES: COc1cc2c(cc1O)N=C[C@@H]1CCC(O)N1C2=O (mixture of isomers)
- T/C [1]: 72 % of control and 78 % of control
- T/C (endpoint: median tumor weight (est.), dose: 1.1 mg/kg/injection, schedule: Q07DX002 (ip), vehicle: distilled water + Tween-80): 62 % of control
- T/C (endpoint: median tumor weight (est.), dose: 2.2 mg/kg/injection, schedule: Q07DX002 (ip), vehicle: distilled water + Tween-80): 85 % of control
- T/C [2]: 121 % of control and 105 % of control
- T/C (endpoint: median tumor weight (est.), dose: 4.5 mg/kg/injection, schedule: Q07DX002 (ip), vehicle: distilled water + Tween-80): 76 % of control
- T/C [3]: 81 % of control and 82 % of control
- T/C (endpoint: median tumor weight (est.), dose: 9.0 mg/kg/injection, schedule: Q07DX002 (ip), vehicle: distilled water + Tween-80): 66 % of control
- T/C [4]: 60 % of control

SMILES: O=C1C=C(C2OC(CO)C(O)C2O)C(=O)N1 (stereo not given)
- T/C (endpoint: median tumor weight (est.), dose: 1.56 mg/kg/injection, schedule: Q07DX002 (ip), vehicle: saline): 66 % of control
- T/C (endpoint: median tumor weight (est.), dose: 3.12 mg/kg/injection, schedule: Q07DX002 (ip), vehicle: saline): 56 % of control
- T/C (endpoint: median tumor weight (est.), dose: 6.25 mg/kg/injection, schedule: Q07DX002 (ip), vehicle: saline): 70 % of control
- T/C (endpoint: median tumor weight (est.), dose: 12.5 mg/kg/injection, schedule: Q07DX002 (ip), vehicle: saline): 113 % of control
- T/C (endpoint: median tumor weight (est.), dose: 25.0 mg/kg/injection, schedule: Q07DX002 (ip), vehicle: saline): 83 % of control

SMILES: CCOC(=O)C(CC(C)C)NC(=O)C(Cc1ccc(N(CCCl)CCCl)cc1)NC(C)=O (stereo not given)
- T/C (endpoint: median tumor weight (est.), dose: 32.0 mg/kg/injection, schedule: Q07DX002 (ip), vehicle: saline with Tween-80): 53 % of control
- T/C (endpoint: median tumor weight (est.), dose: 32.0 mg/kg/injection, schedule: Q07DX003 (ip), vehicle: saline with Tween-80): 76 % of control
- T/C (endpoint: median tumor weight (est.), dose: 64.0 mg/kg/injection, schedule: Q07DX002 (ip), vehicle: saline with Tween-80): 36 % of control
- T/C (endpoint: median tumor weight (est.), dose: 64.0 mg/kg/injection, schedule: Q07DX003 (ip), vehicle: saline with Tween-80): 66 % of control
- T/C (endpoint: median tumor weight (est.), dose: 128.0 mg/kg/injection, schedule: Q07DX003 (ip), vehicle: saline with Tween-80): 82 % of control

SMILES: CCOC(=O)c1[nH]c2cccc3c2c1CC(Br)C3=O (stereo not given)
- T/C [5]: 120 % of control
- T/C [6]: 92 % of control
- T/C [7]: 90 % of control
- T/C [8]: 78 % of control

SMILES: Oc1c(Cl)cc(C(c2cc(Cl)c(O)c(Cl)c2)C(c2cc(Cl)c(O)c(Cl)c2)c2cc(Cl)c(O)c(Cl)c2)cc1Cl
- T/C [9]: 115 % of control and 99 % of control
- T/C [10]: 123 % of control
- T/C [11]: 96 % of control
- T/C [12]: 95 % of control and 104 % of control
- T/C [13]: 63 % of control and 86 % of control
- T/C [14]: 57 % of control and 82 % of control

SMILES: COc1cc([C@@H]2c3cc4c(c(O)c3C[C@H]3COC(=O)[C@@H]32)OCO4)cc(OC)c1OC
- T/C [1]: 81 % of control
- T/C (endpoint: median tumor weight (est.), dose: 2.0 mg/kg/injection, schedule: Q07DX002 (ip), vehicle: saline): 67 % of control
- T/C [2]: 76 % of control
- T/C [3]: 73 % of control
- T/C [4]: 70 % of control

SMILES: CC1(C)CC1(Br)Br
- T/C [15]: 155 % of control
- T/C [5]: 110 % of control and 96 % of control
- T/C [6]: 150 % of control
- T/C [7]: 124 % of control and 106 % of control
- T/C [8]: 155 % of control
- T/C [16]: 107 % of control

SMILES: NNC(=O)c1ccncc1
- T/C (endpoint: median tumor weight (est.), dose: 32.0 mg/kg/injection, schedule: Q07DX002 (ip), vehicle: saline): 118 % of control
- T/C (endpoint: median tumor weight (est.), dose: 36.0 mg/kg/injection, schedule: Q07DX002 (ip), vehicle: saline): 77 % of control and 98 % of control
- T/C (endpoint: median tumor weight (est.), dose: 64.0 mg/kg/injection, schedule: Q07DX002 (ip), vehicle: saline): 104 % of control
- T/C (endpoint: median tumor weight (est.), dose: 72.0 mg/kg/injection, schedule: Q07DX002 (ip), vehicle: saline): 75 % of control and 95 % of control
- T/C (endpoint: median tumor weight (est.), dose: 128.0 mg/kg/injection, schedule: Q07DX002 (ip), vehicle: saline): 120 % of control
- T/C (endpoint: median tumor weight (est.), dose: 144.0 mg/kg/injection, schedule: Q07DX002 (ip), vehicle: saline): 120 % of control

SMILES: CC(C)CCCCCCCCCCCCC(=O)NCC(=O)NC1C(C)OC(Nc2ncnc3nc[nH]c23)C(O)C1O (stereo not given)
- T/C (endpoint: median tumor weight (est.), dose: 0.5 mg/kg/injection, schedule: Q07DX002 (ip), vehicle: distilled water + Tween-80): 105 % of control

SMILES: O=C(CC(=O)C(F)(F)F)c1csc2ccccc12
- T/C [9]: 110 % of control and 90 % of control
- T/C [11]: 76 % of control
- T/C [13]: 62 % of control

SMILES: COC1CC(NC(=O)N(CCCl)N=O)C(O)C(CO)O1 (stereo not given)
- T/C (endpoint: median tumor weight change, dose: 10.0 mg/kg/injection, schedule: Q04DX003 (oral), vehicle: saline): 5 % of control

SMILES: C=C1C(O)C2(O)OCC34C(CC5C(C)=CC(=O)C(O)C5(C)C23)OC(=O)C(OC(=O)C(C)(O)CC)C14 (stereo not given)
- T/C (endpoint: median tumor weight (est.), dose: 0.12 mg/kg/injection, schedule: Q07DX002 (ip), vehicle: saline + alcohol): 93 % of control
- T/C (endpoint: median tumor weight (est.), dose: 0.25 mg/kg/injection, schedule: Q07DX002 (ip), vehicle: saline + alcohol): 71 % of control
- T/C (endpoint: median tumor weight (est.), dose: 0.5 mg/kg/injection, schedule: Q07DX002 (ip), vehicle: saline + alcohol): 93 % of control
- T/C (endpoint: median tumor weight (est.), dose: 1.0 mg/kg/injection, schedule: Q07DX002 (ip), vehicle: saline + alcohol): 52 % of control
- T/C (endpoint: median tumor weight (est.), dose: 2.0 mg/kg/injection, schedule: Q07DX002 (ip), vehicle: saline + alcohol): 57 % of control

SMILES: Nc1nc(N)c2cc(CNc3ccc(C(=O)NC(CC(=O)O)CC(=O)O)cc3)ccc2n1
- T/C [10]: 120 % of control
- T/C [11]: 97 % of control
- T/C [12]: 60 % of control
- T/C [13]: 114 % of control
- T/C [14]: 76 % of control

SMILES: Nc1ncnc2c1nnn2C1OC(CO)C(O)C1O (stereo not given)
- T/C [14]: 45 % of control

SMILES: COc1cccc2c1C(=O)c1c(O)c3c(c(O)c1C2=O)C[C@@](O)(C(C)=O)C[C@@H]3OC1CC(N)C(O)C(C)O1 (stereo not given in full)
- T/C (endpoint: median tumor weight (est.), dose: 0.5 mg/kg/injection, schedule: Q07DX002 (ip), vehicle: water): 75 % of control
- T/C (endpoint: median tumor weight (est.), dose: 0.5 mg/kg/injection, schedule: Q07DX003 (ip), vehicle: saline): 62 % of control and 76 % of control
- T/C (endpoint: median tumor weight (est.), dose: 1.0 mg/kg/injection, schedule: Q07DX002 (ip), vehicle: water): 230 % of control
- T/C (endpoint: median tumor weight (est.), dose: 1.0 mg/kg/injection, schedule: Q07DX003 (ip), vehicle: saline): 55 % of control and 76 % of control
- T/C (endpoint: median tumor weight (est.), dose: 2.0 mg/kg/injection, schedule: Q07DX002 (ip), vehicle: water): 117 % of control
- T/C (endpoint: median tumor weight (est.), dose: 2.0 mg/kg/injection, schedule: Q07DX003 (ip), vehicle: saline): 78 % of control and 91 % of control

SMILES: O=C(Nc1ccc(C2=NCCN2)cc1)c1ccc(C(=O)Nc2ccc(C3=NCCN3)cc2)c(Cl)c1
- T/C (endpoint: median tumor weight (est.), dose: 6.25 mg/kg/injection, schedule: Q07DX002 (ip), vehicle: saline with Tween-80): 117 % of control
- T/C [15]: 117 % of control
- T/C [6]: 118 % of control

SMILES: OC1(CSc2ccccc2)CCCCC1
- T/C [5]: 93 % of control
- T/C [6]: 47 % of control
- T/C [7]: 97 % of control
- T/C [8]: 87 % of control
- T/C [16]: 77 % of control

SMILES: c1ccc2c(NCCCCCCCCNc3c4ccccc4nc4ccccc34)c3ccccc3nc2c1
- T/C (endpoint: median tumor weight (est.), dose: 5.0 mg/kg/injection, schedule: Q07DX002 (ip), vehicle: Klucel (hydroxypropylcellulose) (HPC)): 109 % of control and 101 % of control
- T/C (endpoint: median tumor weight (est.), dose: 10.0 mg/kg/injection, schedule: Q07DX002 (ip), vehicle: Klucel (hydroxypropylcellulose) (HPC)): 78 % of control and 93 % of control
- T/C (endpoint: median tumor weight (est.), dose: 20.0 mg/kg/injection, schedule: Q07DX002 (ip), vehicle: Klucel (hydroxypropylcellulose) (HPC)): 75 % of control and 77 % of control
- T/C (endpoint: median tumor weight (est.), dose: 40.0 mg/kg/injection, schedule: Q07DX002 (ip), vehicle: Klucel (hydroxypropylcellulose) (HPC)): 72 % of control and 87 % of control
- T/C (endpoint: median tumor weight (est.), dose: 80.0 mg/kg/injection, schedule: Q07DX002 (ip), vehicle: Klucel (hydroxypropylcellulose) (HPC)): 79 % of control and 100 % of control

SMILES: NCCCC(N)(C(=O)O)C(F)F (stereo not given)
- T/C (endpoint: median tumor weight (est.), dose: 100.0 mg/kg/injection, schedule: Q07DX002 (ip), vehicle: distilled water + alcohol): 124 % of control
- T/C (endpoint: median tumor weight (est.), dose: 200.0 mg/kg/injection, schedule: Q07DX002 (ip), vehicle: distilled water + alcohol): 107 % of control
- T/C (endpoint: median tumor weight (est.), dose: 400.0 mg/kg/injection, schedule: Q07DX002 (ip), vehicle: distilled water + alcohol): 113 % of control and 124 % of control
- T/C (endpoint: median tumor weight (est.), dose: 800.0 mg/kg/injection, schedule: Q07DX002 (ip), vehicle: distilled water + alcohol): 124 % of control
- T/C (endpoint: median tumor weight (est.), dose: 1600.0 mg/kg/injection, schedule: Q07DX002 (ip), vehicle: distilled water + alcohol): 123 % of control and 100 % of control
